Results from patent publication US9850225B2, “Compounds useful as immunomodulators” (BRISTOL-MYERS SQUIBB COMPANY, priority 2014, dated 2017).

target: PD-1/PD-L1 interaction (PD-1-Ig / PD-L1-His) (Homo sapiens (Human), UniProt Q9NZQ7); assay: PD-1/PD-L1 Homogenous Time-Resolved Fluorescence (HTRF) binding assay; details: PD-1/PD-L1 HTRF binding assay; numeric value; read-out: Range or IC50
Summary of the method: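 HTRF detection used 1 nM europium-cryptate anti-Ig and 20 nM APC anti-His. Compounds first saw 10 nM PD-L1-His for 15 min, and 20 nM PD-1-Ig was then added for another 15 min. Buffer was dPBS plus 0.1% BSA and 0.05% Tween-20. All concentrations are final.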

Sequence of PD-1/PD-L1 interaction (PD-1-Ig / PD-L1-His) (Q9NZQ7 other isoform, or with tags, fused parts or gaps): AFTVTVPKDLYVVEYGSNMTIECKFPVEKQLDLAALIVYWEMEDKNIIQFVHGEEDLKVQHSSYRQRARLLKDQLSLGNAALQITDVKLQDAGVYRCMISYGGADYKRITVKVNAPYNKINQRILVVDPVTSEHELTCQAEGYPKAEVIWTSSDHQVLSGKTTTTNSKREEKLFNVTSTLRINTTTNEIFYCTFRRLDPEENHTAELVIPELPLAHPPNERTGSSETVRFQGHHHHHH

| IC50 [µM] | SMILES |
| --- | --- |
| 0.0813 | CC(=O)NCCNCc1ccc(OCc2cccc(-c3ccccc3)c2C)cc1OCc1cc(C#N)ccc1F [Example 1095, N-(2-((2-((5-cyano-2-fluorobenzyl)oxy)-4-((2-methyl-[1,1′-biphenyl]-3-yl)methoxy)benzyl)amino)ethyl)acetamide] |
| 14.2 | CC(=O)NCCNCc1ccc(OCc2cccc(-c3ccccc3)c2C)cc1OCc1cccc(NC(=O)OC(C)(C)C)c1 [Example 1119, tert-butyl (3-((2-(((2-acetamidoethyl)amino)methyl)-5-((2-methyl-[1,1′-biphenyl]-3-yl)methoxy)phenoxy)methyl)phenyl)carbamate] |

same assay, conditions: PD-1/PD-L1 HTRF binding assay; value given as range class; read-out: Range or IC50

| IC50 [µM] | SMILES |
| --- | --- |
| 0.0006 to 0.01 | Cc1c(COc2cc(OCc3cncc(C#N)c3)c(CN3CCCC[C@H]3C(=O)NS(C)(=O)=O)cc2Cl)cccc1-c1ccc2c(c1)OCCO2 [Example 1256, (S)-1-(5-chloro-2-((5-cyanopyridin-3-yl)methoxy)-4-((3-(2,3-dihydrobenzo[b][1,4]dioxin-6-yl)-2-methylbenzyl)oxy)benzyl)-N-(methylsulfonyl)piperidine-2-carboxamide] |
| 0.0006 to 0.01 | N#Cc1cccc(COc2cc(OCc3cccc(-c4ccc5c(c4)OCCO5)c3C#N)c(Br)cc2CN2CCCC[C@H]2C(=O)O)c1 [Example 1313, (S)-1-(5-bromo-4-((2-cyano-3-(2,3-dihydrobenzo[b][1,4]dioxin-6-yl)benzyl)oxy)-2-((3-cyanobenzyl)oxy)benzyl)piperidine-2-carboxylic acid] |
| 0.01 to 0.1 | Cc1c(COc2cc(OCc3cccc(C#N)c3)c(CN(Cc3ccccc3)[C@@H](CO)C(=O)O)cc2Cl)cccc1-c1ccc2c(c1)OCCO2 [Example 1171, (S)-2-(benzyl(5-chloro-2-((3-cyanobenzyl)oxy)-4-((3-(2,3-dihydrobenzo[b][1,4]dioxin-6-yl)-2-methylbenzyl)oxy)benzyl)amino)-3-hydroxypropanoic acid] |
| 0.01 to 0.1 | COc1cc(COc2cc(OCc3cccc(-c4ccc5c(c4)OCCO5)c3C)c(Cl)cc2CN2CCCC[C@H]2C(=O)O)ccn1 [Example 3017, (S)-1-(5-chloro-4-((3-(2,3-dihydrobenzo[b][1,4]dioxin-6-yl)-2-methylbenzyl)oxy)-2-((2-methoxypyridin-4-yl)methoxy)benzyl)piperidine-2-carboxylic acid] |
| 0.1 to 20 | CC(=O)NCCNCc1ccc(OCc2cccc(-c3ccccc3)c2C)c(Cl)c1OCc1cccc(C#N)c1 [Example 1234, N-(2-(3-chloro-2-(3-cyanobenzyloxy)-4-((2-methylbiphenyl-3-yl)methoxy)benzylamino)ethyl)acetamide] |
| 0.0006 to 0.01 | Cc1c(COc2cc(OCc3cccc(C#N)c3)c(CN[C@@H](Cc3ccccn3)C(=O)O)cc2Cl)cccc1-c1ccc2c(c1)OCCO2 [Example 1221, (S)-2-((5-chloro-2-((3-cyanobenzyl)oxy)-4-((3-(2,3-dihydrobenzo[b][1,4]dioxin-6-yl)-2-methylbenzyl)oxy)benzyl)amino)-3-(pyridin-2-yl)propanoic acid] |
| 0.0006 to 0.01 | Cc1c(COc2cc(OCc3cccc(C#N)c3)c(CN[C@H](C)C(=O)O)cc2Cl)cccc1-c1ccc2c(c1)OCCO2 [Example 1169, (R)-2-((5-chloro-2-((3-cyanobenzyl)oxy)-4-((3-(2,3-dihydrobenzo[b][1,4]dioxin-6-yl)-2-methylbenzyl)oxy)benzyl)amino)propanoic acid] |
| 0.0006 to 0.01 | Cc1c(COc2cc(OCc3cccc(S(C)(=O)=O)c3)c(CN[C@@](C)(CO)C(=O)O)cc2Cl)cccc1-c1ccc2c(c1)OCCO2 [Example 3021, (S)-2-((5-chloro-4-((3-(2,3-dihydrobenzo[b][1,4]dioxin-6-yl)-2-methylbenzyl)oxy)-2-((3-(methylsulfonyl)benzyl)oxy)benzyl)amino)-3-hydroxy-2-methylpropanoic acid] |
| 0.0006 to 0.01 | Cc1cc(CN[C@H](CO)C(=O)O)c(OCc2cncc(C#N)c2)cc1OCc1cccc(-c2ccc3c(c2)OCCO3)c1C#N [Example 1310, (R)-2-(4-(2-cyano-3-(2,3-dihydrobenzo[b][1,4]dioxin-6-yl)benzyloxy)-2-((5-cyanopyridin-3-yl)methoxy)-5-methylbenzylamino)-3-hydroxypropanoic acid] |
| 0.0006 to 0.01 | Cc1c(COc2cc(OCc3cncc(Br)c3)c(CN[C@](C)(CO)C(=O)O)cc2Cl)cccc1-c1ccc2c(c1)OCCO2 [Example 1254, (R)-2-(2-((5-bromopyridin-3-yl)methoxy)-5-chloro-4-(3-(2,3-dihydrobenzo[b][1,4]dioxin-6-yl)-2-methylbenzyloxy)benzylamino)-3-hydroxy-2-methylpropanoic acid] |
| 0.0006 to 0.01 | Cc1cc(CN[C@@](C)(CO)C(=O)O)c(OCc2ccc(F)c(C#N)c2)cc1OCc1cccc(-c2ccc3c(c2)OCCO3)c1C [Example 1275, (S)-2-((2-((3-cyano-4-fluorobenzyl)oxy)-4-((3-(2,3-dihydrobenzo[b][1,4]dioxin-6-yl)-2-methylbenzyl)oxy)-5-methylbenzyl)amino)-3-hydroxy-2-methylpropanoic acid] |
| 0.1 to 20 | Cc1c(COc2cc(OCc3cccc(S(C)(=O)=O)c3)c(C=O)cc2Cl)cccc1-c1ccc2c(c1)OCCO2 [Example 3020, 5-chloro-4-((3-(2,3-dihydrobenzo[b][1,4]dioxin-6-yl)-2-methylbenzyl)oxy)-2-((3-(methylsulfonyl)benzyl)oxy)benzaldehyde] |
| 0.0006 to 0.01 | N#Cc1cccc(COc2cc(OCc3cccc(-c4ccc5c(c4)OCCO5)c3C#N)c(Cl)cc2CN[C@H](CO)C(=O)O)c1 [Example 1242, (R)-2-((5-chloro-4-((2-cyano-3-(2,3-dihydrobenzo[b][1,4]dioxin-6-yl)benzyl)oxy)-2-((3-cyanobenzyl)oxy)benzyl)amino)-3-hydroxypropanoic acid] |
| 0.0006 to 0.01 | Cc1c(COc2cc(OCc3cncc(C#N)c3)c(CN[C@@H](Cc3ccccn3)C(=O)O)cc2Cl)cccc1-c1ccc2c(c1)OCCO2 [Example 2009, (S)-2-((5-chloro-2-((5-cyanopyridin-3-yl)methoxy)-4-((3-(2,3-dihydrobenzo[b][1,4]dioxin-6-yl)-2-methylbenzyl)oxy)benzyl)amino)-3-(pyridin-2-yl)propanoic acid] |
| 0.0006 to 0.01 | Cc1c(COc2cc(OCc3cccc(C#N)c3)c(CN[C@@H](CCCCN(C)C)C(=O)O)cc2Cl)cccc1-c1ccc2c(c1)OCCO2 [Example 1173, (S)-2-((5-chloro-2-((3-cyanobenzyl)oxy)-4-((3-(2,3-dihydrobenzo[b][1,4]dioxin-6-yl)-2-methylbenzyl)oxy)benzyl)amino)-6-(dimethylamino)hexanoic acid] |
| 0.0006 to 0.01 | Cc1c(COc2cc(OCc3cccc(C#N)c3)c(CN[C@@H](CO)C(=O)O)cc2Br)cccc1-c1ccc2c(c1)OCCO2 [Example 1301, (S)-2-((5-bromo-2-((3-cyanobenzyl)oxy)-4-((3-(2,3-dihydrobenzo[b][1,4]dioxin-6-yl)-2-methylbenzyl)oxy)benzyl)amino)-3-hydroxypropanoic acid] |

More lines, now with the values behind:

| SMILES | IC50 [µM] |
| --- | --- |
| COCCCOc1cc(OCc2cccc(-c3ccccc3)c2C)ccc1CNCCNC(C)=O [Example 1042, N-(2-((2-(3-methoxypropoxy)-4-((2-methyl-[1,1′-biphenyl]-3-yl)methoxy)benzyl)amino)ethyl)acetamide] | 0.1 to 20 |
| CC(=O)NCCNCc1ccc(OCc2cccc(-c3ccccc3)c2C)cc1OCc1ccccc1S(C)(=O)=O [Example 1041, N-(2-((4-((2-methyl-[1,1′-biphenyl]-3-yl)methoxy)-2-((2-(methylsulfonyl)benzyl)oxy)benzyl)amino)ethyl)acetamide] | 0.1 to 20 |
| CC(=O)NCCNCc1ccc(OCc2cccc(-c3ccccc3)c2C)cc1OCc1cc(C)cc(C)c1 [Example 1065, N-(2-((2-((3,5-dimethylbenzyl)oxy)-4-((2-methyl-[1,1′-biphenyl]-3-yl)methoxy)benzyl)amino)ethyl)acetamide] | 0.1 to 20 |
| CC(=O)NCCNCc1ccc(OCc2cccc(-c3ccccc3)c2C)cc1OCC(F)(F)F [Example 1026, N-(2-((4-((2-methyl-[1,1′-biphenyl]-3-yl)methoxy)-2-(2,2,2-trifluoroethoxy)benzyl)amino)ethyl)acetamide] | 0.1 to 20 |
| CC(=O)NCCNCc1ccc(OCc2cccc(-c3ccccc3)c2C)cc1OCc1cc(C(F)(F)F)cc(C(F)(F)F)c1 [Example 1061, N-(2-((2-((3,5-bis(trifluoromethyl)benzyl)oxy)-4-((2-methyl-[1,1′-biphenyl]-3-yl)methoxy)benzyl)amino)ethyl)acetamide] | 0.1 to 20 |
| COC(=O)Cc1cccc(COc2cc(OCc3cccc(-c4ccccc4)c3C)ccc2CNCCNC(C)=O)c1 [Example 1101, methyl 2-(3-((2-(((2-acetamidoethyl)amino)methyl)-5-((2-methyl-[1,1′-biphenyl]-3-yl)methoxy)phenoxy)methyl)phenyl)acetate] | 0.1 to 20 |
| CC(=O)NCCNCc1ccc(OCc2cccc(-c3ccccc3)c2C)cc1OCc1ccc(Br)cc1C#N [Example 1097, N-(2-((2-((4-bromo-2-cyanobenzyl)oxy)-4-((2-methyl-[1,1′-biphenyl]-3-yl)methoxy)benzyl)amino)ethyl)acetamide] | 0.1 to 20 |
| COc1cc(F)cc(COc2cc(OCc3cccc(-c4ccccc4)c3C)ccc2CNCCNC(C)=O)c1 [Example 1096, N-(2-((2-((3-fluoro-5-methoxybenzyl)oxy)-4-((2-methyl-[1,1′-biphenyl]-3-yl)methoxy)benzyl)amino)ethyl)acetamide] | 0.1 to 20 |
| Cc1cc(CNC[C@@H](O)CC(=O)O)c(OCCCCC#N)cc1OCc1cccc(-c2ccc3c(c2)OCCO3)c1C [Example 1295, (S)-4-(2-(4-cyanobutoxy)-4-(3-(2,3-dihydrobenzo[b][1,4]dioxin-6-yl)-2-methylbenzyloxy)-5-methylbenzylamino)-3-hydroxybutanoic acid] | 0.0006 to 0.01 |

same assay, conditions: read-out: Range or IC50

| SMILES | IC50 [µM] |
| --- | --- |
| CC(=O)NCCNCc1ccc(OCc2cccc(-c3ccccc3)c2C)cc1OCc1cccc([N+](=O)[O-])c1 [Example 1076] | 0.01 to 0.1 |
